Among the data in BindingDB's records for PubMed 9694973 (Alcon Laboratories, 1998) are Ki values, retold here.

Structures are written as SMILES. Values joined by “and” are separate entries in the source; they are usually repeats but may differ in a detail not shown here. Identical values can stand only once. Bounds are passed on as bounds.

The target of assay [1] is T1, Prostaglandin E2 receptor EP3 subtype (Bos taurus, UniProt P34979).
T1 sequence (P34979 whole entry): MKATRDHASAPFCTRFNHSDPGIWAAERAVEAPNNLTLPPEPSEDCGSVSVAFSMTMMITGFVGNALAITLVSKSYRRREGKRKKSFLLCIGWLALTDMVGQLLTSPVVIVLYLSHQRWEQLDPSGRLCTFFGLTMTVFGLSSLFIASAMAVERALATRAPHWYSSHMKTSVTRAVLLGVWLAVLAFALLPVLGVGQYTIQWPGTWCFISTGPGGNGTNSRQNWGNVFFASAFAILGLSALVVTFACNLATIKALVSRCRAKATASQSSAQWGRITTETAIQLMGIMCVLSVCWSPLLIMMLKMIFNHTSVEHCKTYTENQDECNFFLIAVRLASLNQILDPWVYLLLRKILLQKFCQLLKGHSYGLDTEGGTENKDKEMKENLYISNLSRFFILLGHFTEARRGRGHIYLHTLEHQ

The target in assay [2] is Prostaglandin F2-alpha receptor (Bos taurus, UniProt P37289).
Prostaglandin F2-alpha receptor, sequence (P37289 whole entry): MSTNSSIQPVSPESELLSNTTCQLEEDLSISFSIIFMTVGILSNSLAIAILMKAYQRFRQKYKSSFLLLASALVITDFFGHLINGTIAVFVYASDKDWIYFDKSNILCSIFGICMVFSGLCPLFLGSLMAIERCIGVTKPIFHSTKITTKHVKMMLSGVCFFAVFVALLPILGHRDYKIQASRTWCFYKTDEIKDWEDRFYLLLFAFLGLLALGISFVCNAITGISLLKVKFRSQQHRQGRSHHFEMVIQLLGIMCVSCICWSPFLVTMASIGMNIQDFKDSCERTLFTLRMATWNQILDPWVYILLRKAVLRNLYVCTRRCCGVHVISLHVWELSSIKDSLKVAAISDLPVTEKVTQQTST

On to `CCCCC[C@H](O)/C=C/C1[C@@H](C/C=C\CCCC(=O)O)[C@H]2CO[C@@H]1C2` (some centres not stated) [U46619], for which the results for the Ki in assay [1] and in assay [2] were greater than 10000 nM and 8900 nM, respectively.
For `O=C(O)CCCC=CC[C@@H]1[C@@H](CC[C@@H](O)CCc2ccccc2)[C@H](O)C[C@@H]1O` [NSC_170548], the Ki in assay [1] was > 10000 nM and 7940 nM; in assay [2], 98 nM.
Consider `CCCCC[C@H](O)/C=C/C1[C@H](O)C[C@H](O)[C@@H]1C/C=C\CCCC(=O)O` (stereo partly drawn) [(Z)-7-[(1R,3R,5S)-3,5-Dihydroxy-2-((E)-(S)-3-hydroxy-oct-1-enyl)-cyclopentyl]-hept-5-enoic acid], for which, in assay [1], the Ki was 37 nM and 24 nM.
Still for that read-out and setting: then `CC#CCC(C)[C@H](O)/C=C/[C@@H]1[C@H]2C/C(=C/CCCC(=O)O)C[C@H]2C[C@H]1O` (some centres not stated), with 265 nM.
Regarding `CC(C)OC(=O)CCC/C=C\C[C@@H]1[C@@H](/C=C/[C@@H](O)CCc2ccccc2)[C@H](O)C[C@@H]1O` [CAS_130209-76-6], the inhibitory constant (Ki) in assay [1] was found to be 388 nM; in assay [2], 59 nM.
In the case of `CCCCC[C@@H](O)/C=C/[C@H]1[C@H](O)CC(=O)[C@@H]1CCCCCCC(=O)O`, the Ki in assay [1] was 2 nM and 4 nM; in assay [2] it was greater than 10000 nM.
On to `O=C(O)CCCCCCc1c(O)n(Cc2ccccc2)c(=O)n1NCC(O)C1CCCCC1` (configuration not stated) [CAS_122021], for which the Ki in assay [1] and in assay [2] was greater than 10000 nM in each case.
With `O=C(CCC=CCCC1C(=O)CC(O)C1OCC(O)COc1ccccc1)Oc1ccc(NC(=O)c2ccccc2)cc1` (configuration not stated) [NSC_5311224], the Ki in assay [1] is 8 nM and 11 nM; in assay [2] it was greater than 10000 nM.
Take `COC(=O)CCC=CCCC1C(=O)CC(O)C1C=CCC(C)(O)C=CC1=CCCC1` (configuration not stated) [CAS_132045]: affinity in assay [1] was put at a Ki of 29 nM.
As to `O=C(O)CCC/C=C\C[C@H]1C(=O)C[C@@H](O)[C@@H]1/C=C/[C@@H](O)CCc1ccccc1` [17-PHENYL TRINOR PROSTAGLANDIN E2], the Ki is 16 nM and 7 nM in assay [1]; 1410 nM in assay [2].
For `O=C(O)CCCC=CCC1C(O)CC(O)C1C=CC(O)COc1cccc(C(F)(F)F)c1` (configuration not stated) [CAS_40666-16-8], the inhibition constant (Ki) is 3170 nM and 3500 nM in assay [1]; 100 nM in assay [2].
As for `COC(=O)CCC=C=CCC1C(=O)CC(O)C1C=CC(O)COc1ccccc1` (configuration not stated) [NSC_5282207], the Ki in assay [1] was 12 nM and 25 nM; in assay [2] it was 1000 nM.
In the case of `CC(C)OC(=O)CCC/C=C/C[C@@H]1[C@@H](CC[C@@H](O)CCc2ccccc2)[C@H](O)C[C@@H]1O` [LATANOPROST (PHXA41)], the inhibition constant Ki in assay [1] is greater than 10000 nM; in assay [2] it was 4200 nM.
In the case of `CCCCC[C@H](O)/C=C/[C@H]1[C@H](O)CC(=O)[C@@H]1C/C=C\CCCC(=O)O` [DINOPROSTONE], the inhibitory constant (Ki) is 4 nM and 3 nM in assay [1]; 3400 nM in assay [2].
In assay [1], `CCCC1([C@@H](O)C/C=C/C2[C@H](O)CC(=O)[C@@H]2CCCCCCC(=O)OC)CCC1` (some centres not stated) [Butaprost (Methyl Ester)] came in with a Ki greater than 10000 nM.
Regarding `CCCCCC(O)CC=C1C(=O)C=CC1CC=CCCCC(=O)O` (configuration not stated) [CAS_41598-07-6], the Ki in assay [1] was 1580 nM and 1110 nM; in assay [2], 2500 nM.
On to `CC(=O)NNC(=O)N1Cc2ccccc2Oc2ccc(Cl)cc21` [CAS_4336830], for which the Ki in assay [1] is 3000 nM and > 10000 nM.
For `O=C(O)CCC/C=C\C[C@@H]1[C@@H](/C=C/[C@@H](O)COc2cccc(Cl)c2)[C@H](O)C[C@@H]1O` [CLOPROSTENOL], the inhibitory constant (Ki) in assay [1] is 90 nM and 91 nM.
For `CS(=O)(=O)NC(=O)CCCC=CCC1C(=O)CC(O)C1C=CC(O)COc1ccccc1` (configuration not stated) [CAS_60325-46-4], the inhibition constant (Ki) in assay [1] is 21 nM and 11 nM; in assay [2] it was 2500 nM.
In the case of `CCCCC(C)(O)CC=CC1C(O)CC(=O)C1CCCCCCC(=O)OC` (configuration not stated) [MISOPROSTOL (Methyl Ester)], the Ki in assay [1] is 25 nM and 54 nM.
On to `CCCCCCCC(=O)CCC1C(O)CC(O)C1CC=CCCCC(=O)OC(C)C` (configuration not stated) [CAS_151671], for which the Ki in assay [1] is greater than 10000 nM; in assay [2], 5900 nM.
As to `CC1CCCCC1C(O)C=CC1C(O)CC(Cl)C1CC=CCOCC(=O)O` (configuration not stated) [CAS_5311208], the Ki in assay [1] is 8740 nM; in assay [2], greater than 10000 nM.
In the same order, the values of `O=NN1CSCSC1` [NSC_130741] are greater than 10000 nM and greater than 10000 nM.
Turning to `CCCCC[C@H](O)/C=C/[C@@H]1[C@H]2C/C(=C\CCCC(=O)O)C[C@H]2C[C@H]1O`, the inhibition constant (Ki) in assay [1] is 4860 nM and 5370 nM; in assay [2], greater than 10000 nM.
Take `O=C(O)CCC/C=C\C[C@@H]1[C@@H](/C=C/[C@@H](O)COc2ccccc2)[C@H](O)C[C@@H]1O` [PGF2Alpha,16-Phenoxy]: affinity in assay [2] was put at a Ki of 22 nM.

As usually defined, the Ki is the dissociation constant of the complex between target and ligand, obtained from inhibition or displacement. The low end stands for higher affinity, the high end for lower affinity.
